In patent US20230286973A1, “PROTEIN SECRETION INHIBITORS” (KEZAR LIFE SCIENCES, priority 2020, published 2023):

Assays:
[1] = test system: PD1-ss+10aa/Gaussia Luciferase; experiment: Dox-Induced PD1-ss-Gluc Assay; type: cell-based; settings: 24 hr Dox induction; 293FRT/TO cells; read-out: 24 hr Dox Inducible PD1ssGluc 293FRT/TO: Mean IC50
Outline: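 Stable Flp-In 293 T-REx cells carried a doxycycline-inducible construct of Gaussia luciferase fused to the PD1 signal sequence plus 10 amino acids. Cells were plated the day before, then treated with compound dilutions in DMSO/media containing doxycycline at 37 °C, 5% CO2.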

[2] = test system: TNFα-FL/Gaussia Luciferase; experiment: Dox Induced TNFα-FL-Gluc Assay; type: cell-based; settings: for IC50: 24 hr Dox induction, 293FRT/TO cells, read-out: 24 hr Dox Inducible TNFaFLGluc 293FRT/TO: Mean IC50; for 24 hr Dox Inducible TNFaFLGluc 293FRT/TO: TNF/PD1: ratio of TNFaFLGluc IC50 to PD1ssGluc IC50
Outline: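 Hygromycin/blasticidin-selected Flp-In 293 T-REx cells, TNFα-FL/Gaussia luciferase fusion under T-REx control; overnight plating, then compound in DMSO/media with doxycycline at 37 °C, 5% CO2; stereo-undefined structures tested as mixtures.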

[3] = test system: HER3-ss+4aa/Gaussia Luciferase; experiment: Dox-Induced Her3-ss-Gluc Assay; type: cell-based; settings: 24 hr Dox induction; 293FRT/TO cells; read-out: 24 hr Dox Inducible Her3(ss + 4)Gluc 293FRT/TO: Mean IC50
Outline: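 Doxycycline-inducible HER3 signal sequence+4aa/Gaussia luciferase construct, stably integrated in Flp-In 293 T-REx cells; compound dilutions applied with doxycycline at 37° C., 5% CO2.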

[4] = test system: IL-2-FL/Gaussia Luciferase; experiment: Dox Induced IL2-FL-Gluc Assay; type: cell-based; settings: for IC50: 24 hr Dox induction, 293FRT/TO cells, read-out: 24 hr Dox Inducible IL2FLGluc 293FRT/TO: Mean IC50; for 24 hr Dox Inducible IL2FLGluc 293FRT/TO: IL2/PD1: ratio of IL2FLGluc IC50 to PD1ssGluc IC50
Outline: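 A hygromycin- and blasticidin-resistant 293 T-REx clone carrying inducible IL-2–Gaussia luciferase (full-length IL-2, residues 1-153) serves as the cell system. After overnight plating, the cells get test compounds together with doxycycline in DMSO/media and are incubated at 37° C, 5% CO2.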

[5] = test system: multiple myeloma cell line NCI-H929; experiment: H929 Cell Viability Assay; type: cell-based, human; settings: Homo sapiens, NCI-H929, 48 h, NCI-H929 cells, Celltiter-Glo
Outline: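 A 48-hour compound treatment of cells in 10% FBS RPMI medium was followed by luciferase-based viability quantification.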

[6] = test system: multiple myeloma cell line U266B1; experiment: U266 Cell Viability Assay; type: cell-based, human; settings: Homo sapiens, U-266, 48 h, U266B1 cells, Celltiter-Glo
Outline: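 After growth in serum-supplemented RPMI 1640, cells received serially diluted compound in DMSO/media and were kept 48 hours before a CellTiter-Glo luminescence readout.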

[7] = Liver Microsome Stability Assay (rat); settings: rat liver microsomes, with NADPH, 1.0 uM compound
Procedure: (§1) Stability of a compound was assessed in the presence of liver microsomes from various sources—mouse, rat, monkey and human liver microsomes. 1.0 uM compound, 0.4% DMSO in 0.1 M Potassium Phosphate with 1.0 mg/mL liver microsomes, were incubated at 37° C. with or without 1 mM NADPH. The samples were quenched at 0, and 30 minutes.

[8] = Liver Microsome Stability Assay (mouse); settings: mouse liver microsomes, with NADPH, 1.0 uM compound
Procedure: as §1

[9] = Liver Microsome Stability Assay (human); settings: human liver microsomes, with NADPH, 1.0 uM compound
Procedure: as §1

[10] = Liver Microsome Stability Assay (monkey); settings: monkey liver microsomes, with NADPH, 1.0 uM compound
Procedure: as §1

SMILES	IC50 [1] [µM]	IC50 [2] [µM]	24 hr Dox Inducible TNFaFLGluc 293FRT/TO: TNF/PD1 [2]	IC50 [3] [µM]	IC50 [4] [µM]	24 hr Dox Inducible IL2FLGluc 293FRT/TO: IL2/PD1 [4]	EC50 [5] [µM]	EC50 [6] [µM]	Liver Microsome Stability (Multiple Species): Rat - % Remaining after 30 min w/NADPH [7] [%]	Liver Microsome Stability (Multiple Species): Mouse - % Remaining after 30 min w/NADPH [8] [%]	Liver Microsome Stability (Multiple Species): Human - % Remaining after 30 min w/NADPH [9] [%]	Liver Microsome Stability (Multiple Species): Monkey - % Remaining after 30 min w/NADPH [10] [%]
NC(=O)c1cc(C(=O)Nc2nc([C@H]3CCCN3c3ccccc3)cs2)n(Cc2ccnc(F)c2)c1 [Compound A152, (R)-1-((2-fluoropyridin-4-yl)methyl)-N2-(4-(1-phenylpyrrolidin-2-yl)thiazol-2-yl)-1H-pyrrole-2,4-dicarboxamide]	2.41	> 25	>10.4	2.13	3.28	1.4	13.2	> 25	24.1	48.9	44.4	28.1
CC(C)c1cc(/C=C/c2csc(NC(=O)c3cccn3Cc3ccnc(F)c3)n2)nn1C [Compound B96, (E)-1-((2-fluoropyridin-4-yl)methyl)-N-(4-(2-(5-isopropyl-1-methyl-1H-pyrazol-3-yl)vinyl)thiazol-2-yl)-1H-pyrrole-2-carboxamide]	0.304	> 25	>82.3	3.3	7.59	25	20.7	> 25	13.6	8.33	0.79	0.19
NC(=O)N1CCC(Oc2ccc(N3CCC[C@@H]3c3csc(NC(=O)c4cccn4Cc4ccnc(F)c4)n3)nc2)CC1 [Compound A156, (R)-4-((6-(2-(2-(1-((2-fluoropyridin-4-yl)methyl)-1H-pyrrole-2-carboxamido)thiazol-4-yl)pyrrolidin-1-yl)pyridin-3-yl)oxy)piperidine-1-carboxamide]	0.115	1.56	13.5	0.273	0.349	3	2.96	> 25	34.1	38.2	10.3	1.75
CC(C)n1cnc(-c2cccc(-c3csc(NC(=O)c4cccn4Cc4ccnc(F)c4)n3)c2)c1 [Compound A167, 1-((2-fluoropyridin-4-yl)methyl)-N-(4-(3-(1-isopropyl-1H-imidazol-4-yl)phenyl)thiazol-2-yl)-1H-pyrrole-2-carboxamide]	0.362	> 25	>69.1	0.603	1.45	4	> 25	> 25	13	12	0.06	0.15
O=C(Nc1ccc(N2CCC[C@@H]2c2csc(NC(=O)c3cccn3Cc3ccnc(F)c3)n2)cc1)O[C@H]1CCOC1 [Compound A174, (S)-tetrahydrofuran-3-yl (4-((R)-2-(2-(1-((2-fluoropyridin-4-yl)methyl)-1H-pyrrole-2-carboxamido)thiazol-4-yl)pyrrolidin-1-yl)phenyl)carbamate]	0.00262	0.0811	30.9	0.00619	0.00801	3.1	0.0774	> 25	42.5	29.4	38	15.4
N#CCn1cnc(/C=C/c2csc(NC(=O)c3cccn3Cc3ccnc(F)c3)n2)c1 [Compound B112, (E)-N-(4-(2-(1-(cyanomethyl)-1H-imidazol-4-yl)vinyl)thiazol-2-yl)-1-((2-fluoropyridin-4-yl)methyl)-1H-pyrrole-2-carboxamide]	0.217	> 25	>115	> 25	> 25	>110	> 25	> 25	41.8	66.5	1.7	1.11
COCCn1cnc(/C=C/c2csc(NC(=O)c3cccn3Cc3ccncc3)n2)c1 [Compound B56, (E)-N-(4-(2-(1-(2-methoxyethyl)-1H-imidazol-4-yl)vinyl)thiazol-2-yl)-1-(pyridin-4-ylmethyl)-1H-pyrrole-2-carboxamide]	0.52	> 25	>48.0	> 25	> 25	>48	> 25	> 25	0.57	1.72	0.46	0.27
O=C(Nc1nc([C@H]2CCCN2c2ccc(CO)cc2)cs1)c1cccn1Cc1ccnc(F)c1 [Compound A113, (R)-1-((2-fluoropyridin-4-yl)methyl)-N-(4-(1-(4-(hydroxymethyl)phenyl)pyrrolidin-2-yl)thiazol-2-yl)-1H-pyrrole-2-carboxamide]	0.00982	0.136	13.9	0.0226	0.0179	1.8	0.615	> 25	0.64	4.74	0.61	1.3
